Test: xn = mol fraction of the nth substance listed
Settings: 100 kPa, Liquid; for viscosity: Falling or rolling sphere viscometry; for mass density: Vibrating tube method

OCC1CCCCC1 [cyclohexylmethanol] + CC1CCCCC1
Settings | mass density [kg/m3] | viscosity [mPa·s]
293.15 K, x2 = 0.0998 | 914.04 | 22.56
293.15 K, x2 = 0.1996 | 898.07 | 12.82
293.15 K, x2 = 0.2999 | 881.82 | 7.902
293.15 K, x2 = 0.3998 | 865.56 | 4.953
293.15 K, x2 = 0.5004 | 848.97 | 3.225
293.15 K, x2 = 0.6007 | 832.61 | 2.164
293.15 K, x2 = 0.6997 | 816.64 | 1.555
293.15 K, x2 = 0.7984 | 800.82 | 1.159
293.15 K, x2 = 0.9012 | 784.55 | 0.891
298.15 K, x2 = 0.0998 | 910.42 | 17.67
298.15 K, x2 = 0.1996 | 894.34 | 10.28
298.15 K, x2 = 0.2999 | 877.99 | 6.5
298.15 K, x2 = 0.3998 | 861.58 | 4.176
298.15 K, x2 = 0.5004 | 844.91 | 2.832
298.15 K, x2 = 0.6007 | 828.51 | 1.92
298.15 K, x2 = 0.6997 | 812.48 | 1.407
298.15 K, x2 = 0.7984 | 796.58 | 1.065
298.15 K, x2 = 0.9012 | 780.24 | 0.817
303.15 K, x2 = 0.0998 | 906.77 | 14.09
303.15 K, x2 = 0.1996 | 890.57 | 8.368
303.15 K, x2 = 0.2999 | 874.13 | 5.421
303.15 K, x2 = 0.3998 | 857.62 | 3.567
303.15 K, x2 = 0.5004 | 840.88 | 2.446
303.15 K, x2 = 0.6007 | 824.38 | 1.715
303.15 K, x2 = 0.6997 | 808.29 | 1.279
303.15 K, x2 = 0.7984 | 792.32 | 0.98
303.15 K, x2 = 0.9012 | 775.91 | 0.769
308.15 K, x2 = 0.0998 | 903.08 | 11.37
308.15 K, x2 = 0.1996 | 886.77 | 6.888
308.15 K, x2 = 0.2999 | 870.24 | 4.567
308.15 K, x2 = 0.3998 | 853.63 | 3.075
308.15 K, x2 = 0.5004 | 836.92 | 2.155
308.15 K, x2 = 0.6007 | 820.24 | 1.542
308.15 K, x2 = 0.6997 | 804.07 | 1.167
308.15 K, x2 = 0.7984 | 788.03 | 0.905
308.15 K, x2 = 0.9012 | 771.56 | 0.718
313.15 K, x2 = 0.0998 | 899.36 | 9.257
313.15 K, x2 = 0.1996 | 882.93 | 5.729
313.15 K, x2 = 0.2999 | 866.31 | 3.884
313.15 K, x2 = 0.3998 | 849.61 | 2.672
313.15 K, x2 = 0.5004 | 832.82 | 1.912
313.15 K, x2 = 0.6007 | 816.06 | 1.393
313.15 K, x2 = 0.6997 | 799.82 | 1.069
313.15 K, x2 = 0.7984 | 783.71 | 0.839
313.15 K, x2 = 0.9012 | 767.17 | 0.672
318.15 K, x2 = 0.0998 | 895.6 | 7.638
318.15 K, x2 = 0.1996 | 879.05 | 4.813
318.15 K, x2 = 0.2999 | 862.35 | 3.332
318.15 K, x2 = 0.3998 | 845.56 | 2.34
318.15 K, x2 = 0.5004 | 828.69 | 1.706
318.15 K, x2 = 0.6007 | 811.86 | 1.264
318.15 K, x2 = 0.6997 | 795.54 | 0.983
318.15 K, x2 = 0.7984 | 779.36 | 0.779
318.15 K, x2 = 0.9012 | 762.76 | 0.631
323.15 K, x2 = 0.0998 | 891.81 | 6.35
323.15 K, x2 = 0.1996 | 875.15 | 4.082
323.15 K, x2 = 0.2999 | 858.35 | 2.882
323.15 K, x2 = 0.3998 | 841.47 | 2.064
323.15 K, x2 = 0.5004 | 824.52 | 1.539
323.15 K, x2 = 0.6007 | 807.62 | 1.152
323.15 K, x2 = 0.6997 | 791.23 | 0.907
323.15 K, x2 = 0.7984 | 774.99 | 0.726
323.15 K, x2 = 0.9012 | 758.33 | 0.594
328.15 K, x2 = 0.0998 | 887.97 | 5.322
328.15 K, x2 = 0.1996 | 871.24 | 3.491
328.15 K, x2 = 0.2999 | 854.31 | 2.512
328.15 K, x2 = 0.3998 | 837.35 | 1.831
328.15 K, x2 = 0.5004 | 820.32 | 1.379
328.15 K, x2 = 0.6007 | 803.35 | 1.054
328.15 K, x2 = 0.6997 | 786.89 | 0.839
328.15 K, x2 = 0.7984 | 770.58 | 0.679
328.15 K, x2 = 0.9012 | 753.86 | 0.561
333.15 K, x2 = 0.0998 | 884.09 | 4.526
333.15 K, x2 = 0.1996 | 867.26 | 3.011
333.15 K, x2 = 0.2999 | 850.23 | 2.204
333.15 K, x2 = 0.3998 | 833.14 | 1.634
333.15 K, x2 = 0.5004 | 816.09 | 1.25
333.15 K, x2 = 0.6007 | 799.05 | 0.967
333.15 K, x2 = 0.6997 | 782.43 | 0.778
333.15 K, x2 = 0.7984 | 766.13 | 0.637
333.15 K, x2 = 0.9012 | 749.37 | 0.531

CCCCCCCO [heptan-1-ol] + CC1CCCCC1
Settings | mass density [kg/m3] | viscosity [mPa·s]
293.15 K, x2 = 0.1004 | 817.38 | 5.541
293.15 K, x2 = 0.1991 | 812.34 | 4.404
293.15 K, x2 = 0.3134 | 806.43 | 3.336
293.15 K, x2 = 0.399 | 801.91 | 2.649
293.15 K, x2 = 0.4994 | 796.51 | 2.055
293.15 K, x2 = 0.5997 | 790.98 | 1.603
293.15 K, x2 = 0.6987 | 785.57 | 1.275
293.15 K, x2 = 0.7995 | 779.94 | 1.03
293.15 K, x2 = 0.8995 | 774.56 | 0.845
298.15 K, x2 = 0.1004 | 813.81 | 4.649
298.15 K, x2 = 0.1991 | 808.71 | 3.773
298.15 K, x2 = 0.3134 | 802.7 | 2.924
298.15 K, x2 = 0.399 | 798.1 | 2.325
298.15 K, x2 = 0.4994 | 792.62 | 1.83
298.15 K, x2 = 0.5997 | 787 | 1.448
298.15 K, x2 = 0.6987 | 781.49 | 1.165
298.15 K, x2 = 0.7995 | 775.77 | 0.951
298.15 K, x2 = 0.8995 | 770.3 | 0.79
303.15 K, x2 = 0.1004 | 810.21 | 4.037
303.15 K, x2 = 0.1991 | 805.04 | 3.261
303.15 K, x2 = 0.3134 | 798.92 | 2.548
303.15 K, x2 = 0.399 | 794.25 | 2.055
303.15 K, x2 = 0.4994 | 788.68 | 1.64
303.15 K, x2 = 0.5997 | 782.98 | 1.314
303.15 K, x2 = 0.6987 | 777.38 | 1.068
303.15 K, x2 = 0.7995 | 771.56 | 0.879
303.15 K, x2 = 0.8995 | 766 | 0.736
308.15 K, x2 = 0.1004 | 806.59 | 3.484
308.15 K, x2 = 0.1991 | 801.33 | 2.838
308.15 K, x2 = 0.3134 | 795.12 | 2.235
308.15 K, x2 = 0.399 | 790.37 | 1.827
308.15 K, x2 = 0.4994 | 784.72 | 1.476
308.15 K, x2 = 0.5997 | 778.93 | 1.197
308.15 K, x2 = 0.6987 | 773.24 | 0.983
308.15 K, x2 = 0.7995 | 767.32 | 0.816
308.15 K, x2 = 0.8995 | 761.67 | 0.702
313.15 K, x2 = 0.1004 | 802.94 | 3.027
313.15 K, x2 = 0.1991 | 797.6 | 2.485
313.15 K, x2 = 0.3134 | 791.3 | 1.932
313.15 K, x2 = 0.399 | 786.47 | 1.633
313.15 K, x2 = 0.4994 | 780.73 | 1.335
313.15 K, x2 = 0.5997 | 774.85 | 1.094
313.15 K, x2 = 0.6987 | 769.07 | 0.907
313.15 K, x2 = 0.7995 | 763.06 | 0.759
313.15 K, x2 = 0.8995 | 757.31 | 0.645
318.15 K, x2 = 0.1004 | 799.26 | 2.643
318.15 K, x2 = 0.1991 | 793.83 | 2.188
318.15 K, x2 = 0.3134 | 787.42 | 1.749
318.15 K, x2 = 0.399 | 782.53 | 1.468
318.15 K, x2 = 0.4994 | 776.7 | 1.213
318.15 K, x2 = 0.5997 | 770.74 | 1.004
318.15 K, x2 = 0.6987 | 764.87 | 0.84
318.15 K, x2 = 0.7995 | 758.76 | 0.708
318.15 K, x2 = 0.8995 | 752.93 | 0.607
323.15 K, x2 = 0.1004 | 795.54 | 2.322
323.15 K, x2 = 0.1991 | 790.03 | 1.937
323.15 K, x2 = 0.3134 | 783.52 | 1.559
323.15 K, x2 = 0.399 | 778.55 | 1.324
323.15 K, x2 = 0.4994 | 772.64 | 1.106
323.15 K, x2 = 0.5997 | 766.59 | 0.924
323.15 K, x2 = 0.6987 | 760.64 | 0.779
323.15 K, x2 = 0.7995 | 754.43 | 0.662
323.15 K, x2 = 0.8995 | 748.52 | 0.572
328.15 K, x2 = 0.1004 | 791.78 | 2.05
328.15 K, x2 = 0.1991 | 786.18 | 1.723
328.15 K, x2 = 0.3134 | 779.58 | 1.396
328.15 K, x2 = 0.399 | 774.54 | 1.2
328.15 K, x2 = 0.4994 | 768.55 | 1.011
328.15 K, x2 = 0.5997 | 762.41 | 0.853
328.15 K, x2 = 0.6987 | 756.36 | 0.725
328.15 K, x2 = 0.7995 | 750.06 | 0.621
328.15 K, x2 = 0.8995 | 744.07 | 0.54
333.15 K, x2 = 0.1004 | 787.98 | 1.82
333.15 K, x2 = 0.1991 | 782.3 | 1.541
333.15 K, x2 = 0.3134 | 775.6 | 1.254
333.15 K, x2 = 0.399 | 770.5 | 1.092
333.15 K, x2 = 0.4994 | 764.42 | 0.928
333.15 K, x2 = 0.5997 | 758.17 | 0.789
333.15 K, x2 = 0.6987 | 752.05 | 0.676
333.15 K, x2 = 0.7995 | 745.66 | 0.584
333.15 K, x2 = 0.8995 | 739.59 | 0.512
